The target of one assay is T1, AKT1 (Homo sapiens, UniProt P31749).
T1 construct: purchased Upstate 14-276
T1 sequence (P31749 whole entry): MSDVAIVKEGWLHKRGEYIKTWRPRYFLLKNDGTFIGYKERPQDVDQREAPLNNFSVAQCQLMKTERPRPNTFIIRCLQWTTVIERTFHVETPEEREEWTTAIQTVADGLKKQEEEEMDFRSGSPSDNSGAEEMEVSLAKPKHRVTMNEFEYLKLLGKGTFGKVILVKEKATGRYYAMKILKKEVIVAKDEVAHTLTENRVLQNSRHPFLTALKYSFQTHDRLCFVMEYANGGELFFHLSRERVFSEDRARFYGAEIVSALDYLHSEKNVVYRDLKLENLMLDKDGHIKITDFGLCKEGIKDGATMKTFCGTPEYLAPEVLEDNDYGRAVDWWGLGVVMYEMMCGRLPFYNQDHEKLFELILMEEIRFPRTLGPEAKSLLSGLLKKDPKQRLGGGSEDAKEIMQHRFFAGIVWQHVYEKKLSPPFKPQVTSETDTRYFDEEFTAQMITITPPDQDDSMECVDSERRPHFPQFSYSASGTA
The assay can be described thus: HTS ATP-utilizing enzyme assay, off-chip mobility-shift (Caliper HTS 250). Type of assay: biochemical. Particulars: kinase named = inhibitory activity/selectivity; test compound 10 μM; active = greater than three-sigma from mean. The gist of the method: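 AKT1 activity was measured by off-chip mobility shift (Caliper HTS 250) as the ratio of peptide substrate to phosphorylated product. Test compound was at 10 μM, with 2.5 h incubation at 20–22° C. EDTA wells served as 100% control and DMSO wells as 0%. Hits were called at three-sigma limits.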
Take `CCOC(=O)N1CCN(CCCN(C(=O)c2cccs2)c2nc(-c3cc4ccccc4o3)cs2)CC1` [ethyl 4-(3-(N-(4-(benzofuran-2-yl)thiazol-2-yl)thiophene-2-carboxamido)propyl)piperazine-1-carboxylate]: the Activity entry was “AKT1”.

With `CCOC(=O)c1cc(-c2csc(N(CCCN3CCOCC3)C(=O)c3cccs3)n2)on1` [ethyl 5-(2-(N-(3-morpholinopropyl)thiophene-2-carboxamido)thiazol-4-yl)isoxazole-3-carboxylate], the Activity entry is reported as “AKT1”.

With `COC(=O)C1CCCN1C(=O)CCN(C(=O)c1cccs1)c1nc(-c2cc3ccccc3o2)cs1` (stereo not drawn) [methyl 1-(3-(N-(4-(benzofuran-2-yl)thiazol-2-yl)thiophene-2-carboxamido)propanoyl)pyrrolidine-2-carboxylate], the Activity entry is listed as “AKT1”.

Take `COC(=O)C1CCCCN1CCCN(C(=O)c1cccs1)c1nc(-c2cc3ccccc3o2)cs1` (stereo not drawn) [methyl 1-(3-(N-(4-(benzofuran-2-yl)thiazol-2-yl)thiophene-2-carboxamido)propyl)piperidine-2-carboxylate]: the Activity result is recorded as “AKT1”.

For `COC(=O)C1CCCN1CCCN(C(=O)c1cccs1)c1nc(-c2cc3ccccc3o2)cs1` (stereo not drawn) [methyl 1-(3-(N-(4-(benzofuran-2-yl)thiazol-2-yl)thiophene-2-carboxamido)propyl)pyrrolidine-2-carboxylate], the Activity entry is on record as “AKT1”.

As for `COC(=O)C1CCN(C(=O)CCCN(C(=O)c2cccs2)c2nc(-c3cc4ccccc4o3)cs2)CC1` [methyl 1-(4-(N-(4-(benzofuran-2-yl)thiazol-2-yl)thiophene-2-carboxamido)butanoyl)piperidine-4-carboxylate], the Activity entry was “AKT1”.

With `COC(=O)C1CCCN1C(=O)CCCN(C(=O)c1cccs1)c1nc(-c2cc3ccccc3o2)cs1` (stereo not drawn) [methyl 1-(4-(N-(4-(benzofuran-2-yl)thiazol-2-yl)thiophene-2-carboxamido)butanoyl)pyrrolidine-2-carboxylate], the Activity entry was “AKT1”.

Consider `COC(=O)CNC(=O)CCN(C(=O)c1cccs1)c1nc(-c2cc3ccccc3o2)cs1` [methyl 2-(3-(N-(4-(benzofuran-2-yl)thiazol-2-yl)thiophene-2-carboxamido)propanamido)acetate], for which the Activity entry is reported as “AKT1”.

In the case of `COC(=O)CNC(=O)CCCN(C(=O)c1cccs1)c1nc(-c2cc3ccccc3o2)cs1` [methyl 2-(4-(N-(4-(benzofuran-2-yl)thiazol-2-yl)thiophene-2-carboxamido)butanamido)acetate], the Activity entry is listed as “AKT1”.

Take `COC(=O)c1ccc(-c2csc(N(CCCN3CCOCC3)C(=O)c3cccs3)n2)cc1` [methyl 4-(2-(N-(3-morpholinopropyl)thiophene-2-carboxamido)thiazol-4-yl)benzoate]: the Activity result is given as “AKT1”.

With `COC(=O)c1ccc(-c2csc(N(CCCN3CCOCC3)C(=O)c3cccs3)n2)nc1` [methyl 6-(2-(N-(3-morpholinopropyl)thiophene-2-carboxamido)thiazol-4-yl)nicotinate], the Activity entry is recorded as “AKT1”.

For the compound `CC(C)(C)OC(=O)NC1CCN(CCCN(C(=O)c2cccs2)c2nc(-c3cc4ccccc4o3)cs2)C1` (stereo not drawn) [tert-butyl 1-(3-(N-(4-(benzofuran-2-yl)thiazol-2-yl)thiophene-2-carboxamido)propyl)pyrrolidin-3-ylcarbamate], the Activity entry is given as “AKT1”.

In the case of `CC(C)(C)OC(=O)NC1CCN(C(=O)CCCN(C(=O)c2cccs2)c2nc(-c3cc4ccccc4o3)cs2)C1` (stereo not drawn) [tert-butyl 1-(4-(N-(4-(benzofuran-2-yl)thiazol-2-yl)thiophene-2-carboxamido)butanoyl)pyrrolidin-3-ylcarbamate], the Activity entry is given as “AKT1”.

For `CC(C)(C)OC(=O)NCCNC(=O)CCCN(C(=O)c1cccs1)c1nc(-c2cc3ccccc3o2)cs1` [tert-butyl 2-(4-(N-(4-(benzofuran-2-yl)thiazol-2-yl)thiophene-2-carboxamido)butanamido)ethylcarbamate], the Activity entry is recorded as “AKT1”.

As for `CC(C)(C)OC(=O)N1CCN(CCCN(C(=O)c2cccs2)c2nc(-c3cc4ccccc4o3)cs2)CC1` [tert-butyl 4-(3-(N-(4-(benzofuran-2-yl)thiazol-2-yl)thiophene-2-carboxamido)propyl)piperazine-1-carboxylate], the Activity result is “AKT1”.

As to `CC(C)(C)OC(=O)N1CCN(C(=O)CCCN(C(=O)c2cccs2)c2nc(-c3cc4ccccc4o3)cs2)CC1` [tert-butyl 4-(4-(N-(4-(benzofuran-2-yl)thiazol-2-yl)thiophene-2-carboxamido)butanoyl)piperazine-1-carboxylate], the Activity result is “AKT1”.

For another assay, the target named is T2, DYRK2 (Homo sapiens, UniProt Q92630).
T2 sequence (Q92630 1-601): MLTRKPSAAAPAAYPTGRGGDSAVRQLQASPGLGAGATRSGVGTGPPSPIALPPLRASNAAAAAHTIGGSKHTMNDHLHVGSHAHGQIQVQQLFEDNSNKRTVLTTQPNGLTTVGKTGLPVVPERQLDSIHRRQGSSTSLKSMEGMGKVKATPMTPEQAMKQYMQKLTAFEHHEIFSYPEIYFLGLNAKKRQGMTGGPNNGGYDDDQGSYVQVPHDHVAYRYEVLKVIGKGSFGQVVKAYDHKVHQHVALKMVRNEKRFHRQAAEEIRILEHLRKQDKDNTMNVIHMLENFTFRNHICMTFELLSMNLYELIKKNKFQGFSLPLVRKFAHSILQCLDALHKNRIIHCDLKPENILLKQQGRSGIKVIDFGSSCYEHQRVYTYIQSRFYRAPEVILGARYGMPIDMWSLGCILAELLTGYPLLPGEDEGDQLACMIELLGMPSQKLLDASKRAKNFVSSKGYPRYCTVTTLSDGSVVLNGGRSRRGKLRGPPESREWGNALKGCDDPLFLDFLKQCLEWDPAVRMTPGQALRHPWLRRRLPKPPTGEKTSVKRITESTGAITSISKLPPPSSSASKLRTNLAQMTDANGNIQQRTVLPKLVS
The assay is described as above. Conditions: kinase named = inhibitory activity/selectivity; test compound 10 μM; active = greater than three-sigma from mean. It counts as biochemical. An excerpt:
The following procedures describe the reagent and plate preparation for a HTS of an ATP-utilizing enzyme, such as a protein kinase, run in an off-chip mobility-shift assay format. The following provides an HTS protocol for running a protein kinase HTS screen on a Caliper HTS 250 microfluidics system. The following parameters are dependent on the protein kinase used and can be determined by one skilled in the art as part of a typical assay development process. For example, the peptide substrate used can be identified from the current literature, by screening a peptide library of potential protein kinase substrates, or by other applicable means accepted in the field.
Assays to determine the kinase inhibitory activity of chemical entities of the present disclosure were performed using a Caliper HTS 250 microfluidics device, Greiner U-bottom assay plates, a Multidrop for transfer of reagents, and Biomek FX (AMNCBM03) software. Initially, 2.4 μL of a 1 mM solution of a test compound in 100% DMSO was added to a well of the Greiner U-bottom plate. A single Greiner U-bottom plate having 24×16 wells could include multiple test compounds. Next, 40 μL of 1.06× Assay Buffer was added to each well of the assay plate. Using the Biomek FX, 10 μL of 0.5 M EDTA was added by the span-8 to wells, indicated as 100% Control and 2.4 μL of 100% DMSO was added by the span-8 to wells, indicated as 0% Control. Using the Multidrop, 10 μL of 2.5× Enzyme Buffer, followed by 10 μL of 2.5× Substrate Buffer was added to each well of the assay plate. The total reaction volume in each well was 25 μL, and the concentration of the test compound was 10 μM. The assay plate was incubated for 2.5 hrs at 20° C. to 22° C. After the incubation period, using the Multidrop, 45 μL of 1.55× Termination Buffer was added to each well of the assay plate to stop the reaction. The inhibition of the ATP-utilizing enzyme, such as a particular protein kinase, was determined by measuring the ratio of the peptide substrate to phosphorylated product for each well of the assay plate using the Caliper HTS 250 system.
The use of three-sigma statistical limits represents a conservative method for declaring potential hits among targets. The three-sigma activity, as well as the mean population activity, can be different for each target enzyme. This method has an expected false positive rate, from an in-control measurement process, of […].
Each chemical entity listed in Table 2 was tested for protein kinase inhibitory activity according to the biological assays and definitions of protein kinase inhibitory activity as described herein. For each exemplary compound listed in Table 2, the inhibitory activity for at least one protein kinase according to the biological assays and definitions of protein kinase inhibitory activity as described herein is indicated.
With `COc1ccc(-c2csc(N(CCCN3CCOCC3)C(=O)Cc3cccc(Cl)c3)n2)cc1` [2-(3-chlorophenyl)-N-(4-(4-methoxyphenyl)thiazol-2-yl)-N-(3-morpholinopropyl)acetamide], the Activity entry is reported as “DYRK2”.

On to `COCCN(C(=O)CCC(=O)O)c1nc(-c2ccc(OC)cc2)cs1` [4-((2-methoxyethyl)(4-(4-methoxyphenyl)thiazol-2-yl)amino)-4-oxobutanoic acid], for which the Activity result is “DYRK2”.

On to `COc1ccc(-c2csc(N(CCc3ccc(OC)c(OC)c3)C(=O)CCC(=O)O)n2)cc1` [4-((3,4-dimethoxyphenethyl)(4-(4-methoxyphenyl)thiazol-2-yl)amino)-4-oxobutanoic acid], for which the Activity entry was “DYRK2”.

With `COCCCN(C(=O)CCC(=O)O)c1nc(-c2ccc(OC)cc2)cs1` [4-((4-(4-methoxyphenyl)thiazol-2-yl)(3-methoxypropyl)amino)-4-oxobutanoic acid], the Activity result is reported as “DYRK2”.

For the compound `COc1ccc(-c2csc(N(CC3CCCO3)C(=O)CCC(=O)O)n2)cc1` (stereo not drawn) [4-((4-(4-methoxyphenyl)thiazol-2-yl)((tetrahydrofuran-2-yl)methyl)amino)-4-oxobutanoic acid], the Activity entry is “DYRK2”.

Regarding `COc1ccc(-c2csc(N(C)C(=O)CCC(=O)O)n2)cc1` [4-((4-(4-methoxyphenyl)thiazol-2-yl)(methyl)amino)-4-oxobutanoic acid], the Activity entry is “DYRK2”.

Consider `COc1ccc(-c2csc(N(CCc3ccccc3)C(=O)CCC(=O)O)n2)cc1` [4-((4-(4-methoxyphenyl)thiazol-2-yl)(phenethyl)amino)-4-oxobutanoic acid], for which the Activity result is “DYRK2”.

In the case of `COc1ccc(-c2csc(N(Cc3ccco3)C(=O)CCC(=O)O)n2)cc1` [4-((furan-2-ylmethyl)(4-(4-methoxyphenyl)thiazol-2-yl)amino)-4-oxobutanoic acid], the Activity result is on record as “DYRK2”.

Consider `COc1ccc(-c2csc(N(Cc3ccccc3)C(=O)CCC(=O)O)n2)cc1` [4-(benzyl(4-(4-methoxyphenyl)thiazol-2-yl)amino)-4-oxobutanoic acid], for which the Activity result was “DYRK2”.

Consider `CCN(C(=O)CCC(=O)O)c1nc(-c2ccc(OC)cc2)cs1` [4-(ethyl(4-(4-methoxyphenyl)thiazol-2-yl)amino)-4-oxobutanoic acid], for which the Activity result is on record as “DYRK2”.

In the case of `COCCN(C(C)=O)c1nc(-c2ccc(OC)cc2)cs1` [N-(2-methoxyethyl)-N-(4-(4-methoxyphenyl)thiazol-2-yl)acetamide], the Activity entry is reported as “DYRK2”.

(Values after US7795290B2 (Genentech, Inc., priority 2004, dated 2010).)
